Converted amounts (≈) assume the structure as drawn. Blank lines part the entries; values can stand above or below the compound they belong to.
Key:
Assay in all cases: ≥ marks a high value that may be exact or a test limit, other limits are often not marked, values filed in µg/mL are converted to µM
[1] = test system: Cronobacter muytjensii ATCC 51329
[2] = test system: Cronobacter sakazakii ATCC BAA-894
[3] = test system: Cronobacter sakazakii DPC 6440
[4] = test system: Cronobacter sakazakii DSM 4485
[5] = test system: Escherichia coli NCIMB 11843
[6] = test system: Klebsiella pneumoniae NCIMB 13218
[7] = test system: Pseudomonas aeruginosa ATCC 27853
[8] = test system: Pseudomonas fluorescens NCIMB 9046
[9] = test system: Salmonella enterica subsp. enterica serovar Typhimurium LT2
[10] = test system: Staphylococcus aureus NCTC 8325-4
[11] = test system: Staphylococcus aureus Newman
[12] = test system: Staphylococcus aureus RF122
[13] = test system: Staphylococcus aureus RN4220
[14] = test system: Staphylococcus aureus SA113
[15] = test system: Escherichia coli DH5alpha
[16] = test system: Staphylococcus xylosus
[17] = test system: Bacillus subtilis KCTC 3068
[18] = test system: Enterococcus faecalis VR
[19] = test system: Enterococcus faecalis
[20] = test system: Enterococcus faecium VR
[21] = test system: Enterococcus faecium
[22] = test system: Escherichia coli KCTC 1682
[23] = test system: Pseudomonas aeruginosa KCTC 1637
[24] = test system: Salmonella typhimurium KCTC 1926
[25] = test system: Staphylococcus aureus KCTC 1621
[26] = test system: Staphylococcus aureus MR
[27] = test system: Staphylococcus epidermidis KCTC 1917
[28] = test system: Bacillus subtilis
[29] = test system: Candida albicans
[30] = test system: Cryptococcus neoformans
[31] = test system: Escherichia coli
[32] = test system: Pseudomonas putida
[33] = test system: Saccharomyces cerevisiae
[34] = test system: Salmonella typhimurium
[35] = test system: Serratia marcescens
[36] = test system: Staphylococcus aureus
[37] = test system: Streptococcus mutans
[38] = test system: Streptococcus pneumoniae
[39] = test system: Bacillus subtilis ATCC 6633
[40] = test system: Klebsiella pneumoniae ATCC 27736
[41] = test system: Pseudomonas aeruginosa ATCC BAA-427

SMILES: NCCCC[C@H](NC(=O)[C@H](CCCN=C(N)N)NC(=O)[C@H](CCCCN)NC(=O)[C@H](CCCCN)NC(=O)[C@H](CCCN=C(N)N)NC(=O)[C@@H](N)CCCCN)C(=O)O [KRKKRK]
MIC [15]: ≥ 64 µM | MIC [16]: 16 µM (≈ 13.5 µg/mL)

SMILES: CSCC[C@H](NC(=O)[C@H](C)NC(=O)[C@H](CC(C)C)NC(=O)[C@H](CS)NC(=O)[C@H](Cc1cnc[nH]1)NC(=O)[C@H](C)NC(=O)[C@H](C)N)C(=O)N[C@@H](CCCN=C(N)N)C(=O)N[C@@H](CCCN=C(N)N)C(=O)N[C@@H](CCCCN)C(N)=O [AAHCLAMRRK]
MIC [17]: 15 µM | MIC [18]: 30 µM | MIC [19]: 30 µM | MIC [20]: 7.5 µM | MIC [21]: 30 µM | MIC [22]: 30 µM | MIC [23]: 30 µM | MIC [24]: 30 µM | MIC [25]: 30 µM | MIC [26]: 30 µM | MIC [27]: 30 µM

SMILES: CC[C@H](C)[C@H](N)C(=O)N[C@@H](CCCCN)C(=O)N[C@@H](Cc1cnc[nH]1)C(=O)N[C@@H](CCC(N)=O)C(=O)NCC(=O)N[C@@H](CCCN=C(N)N)C(=O)N1CCC[C@H]1C(=O)N[C@@H](CCC(N)=O)C(=O)N[C@@H](CCC(=O)O)C(=O)O [IKHQGRPQE]
MIC [1]: ≥ 2500 µM | MIC [2]: ≥ 2500 µM | MIC [3]: ≥ 2500 µM | MIC [4]: ≥ 2500 µM | MIC [5]: ≥ 2500 µM | MIC [6]: ≥ 2500 µM | MIC [8]: ≥ 2500 µM | MIC [9]: ≥ 2500 µM | MIC [10]: ≥ 2500 µM | MIC [11]: ≥ 2500 µM | MIC [12]: ≥ 2500 µM | MIC [13]: ≥ 2500 µM | MIC [14]: ≥ 2500 µM

SMILES: CC[C@H](C)[C@H](NC(=O)CNC(=O)[C@H](CCCN=C(N)N)NC(=O)[C@H](C)NC(=O)[C@H](Cc1ccccc1)NC(=O)[C@H](Cc1cnc[nH]1)NC(=O)[C@H](Cc1cnc[nH]1)NC(=O)[C@H](Cc1ccccc1)NC(=O)[C@@H](N)Cc1ccccc1)C(=O)N[C@H](C(=O)N[C@@H](Cc1cnc[nH]1)C(=O)N[C@H](C(=O)NCC(=O)N[C@@H](CCCCN)C(=O)N[C@H](C(=O)N[C@H](C(=O)N[C@@H](Cc1cnc[nH]1)C(=O)N[C@@H](CCCN=C(N)N)C(=O)N[C@@H](CC(C)C)C(=O)N[C@H](C(=O)N[C@H](C(=O)NCC(N)=O)[C@@H](C)O)C(C)C)[C@@H](C)CC)[C@@H](C)O)C(C)C)C(C)C [FFHHFARGIVHVGKTIHRLVTG]
MIC [39]: 16 µM (≈ 40.5 µg/mL) | MIC [40]: 12 µM (≈ 30.3 µg/mL) | MIC [41]: 24 µM (≈ 60.7 µg/mL)

SMILES: CC[C@H](C)[C@H](N)C(=O)N[C@@H](CCCCN)C(=O)N[C@@H](Cc1cnc[nH]1)C(=O)N[C@@H](CCC(N)=O)C(=O)NCC(=O)N[C@@H](CC(C)C)C(=O)N1CCC[C@H]1C(=O)N[C@@H](CCC(N)=O)C(=O)N[C@@H](C)C(=O)O [IKHQGLPQA]
MIC [1]: ≥ 2500 µM | MIC [2]: ≥ 1250 µM | MIC [3]: ≥ 625 µM | MIC [4]: ≥ 2500 µM | MIC [5]: ≥ 2500 µM | MIC [6]: ≥ 2500 µM | MIC [8]: ≥ 2500 µM | MIC [9]: ≥ 2500 µM | MIC [10]: ≥ 2500 µM | MIC [11]: ≥ 2500 µM | MIC [12]: ≥ 625 µM | MIC [13]: ≥ 625 µM | MIC [14]: ≥ 2500 µM

SMILES: CC(C)C[C@H](NC(=O)CNC(=O)[C@H](C)NC(=O)[C@@H](N)CCCN=C(N)N)C(=O)N[C@@H](CCC(N)=O)C(=O)N[C@@H](Cc1ccccc1)C(=O)N[C@@H](CC(C)C)C(=O)N[C@H](C(=O)NCC(=O)N[C@@H](CCCN=C(N)N)C(=O)N[C@H](C(=O)N[C@@H](Cc1cnc[nH]1)C(=O)N[C@@H](CCCN=C(N)N)C(=O)N[C@@H](CC(C)C)C(=O)N[C@@H](CC(C)C)C(=O)N[C@@H](CCCN=C(N)N)C(=O)N[C@@H](CCCCN)C(=O)O)C(C)C)C(C)C [RAGLQFLVGRVHRLLRK]
MIC [28]: 15.8 µM (≈ 32 µg/mL) | MIC [29]: 7.92 µM (≈ 16 µg/mL) | MIC [30]: 7.92 µM (≈ 16 µg/mL) | MIC [31]: 15.8 µM (≈ 32 µg/mL) | MIC [32]: 7.92 µM (≈ 16 µg/mL) | MIC [33]: 7.92 µM (≈ 16 µg/mL) | MIC [34]: 7.92 µM (≈ 16 µg/mL) | MIC [35]: 31.7 µM (≈ 64 µg/mL) | MIC [36]: 15.8 µM (≈ 32 µg/mL) | MIC [37]: 15.8 µM (≈ 32 µg/mL) | MIC [38]: 15.8 µM (≈ 32 µg/mL)

Now from value to compound:

MIC [1]: ≥ 1250 µM | MIC [2]: ≥ 1250 µM | MIC [3]: ≥ 625 µM | MIC [4]: ≥ 2500 µM | MIC [5]: ≥ 2500 µM | MIC [6]: ≥ 1250 µM | MIC [7]: 64 µM (≈ 53.8 µg/mL) | MIC [8]: ≥ 2500 µM | MIC [9]: ≥ 1250 µM | MIC [10]: ≥ 312 µM | MIC [11]: ≥ 1250 µM | MIC [12]: ≥ 1250 µM | MIC [13]: ≥ 1250 µM | MIC [14]: ≥ 312 µM
SMILES: CC(C)C[C@H](NC(=O)[C@H](CC(C)C)NC(=O)[C@H](CC(N)=O)NC(=O)[C@H](CC(N)=O)NC(=O)[C@H](CC(C)C)NC(=O)[C@@H](N)C(C)C)C(=O)N[C@@H](CCCN=C(N)N)C(=O)O [VLNNLLR]

MIC [28]: 2.85 µM (≈ 8 µg/mL) | MIC [29]: > 91.1 µM | MIC [30]: ≥ 45.5 µM | MIC [31]: 45.5 µM (≈ 128 µg/mL) | MIC [32]: 22.8 µM (≈ 64 µg/mL) | MIC [33]: ≥ 91.1 µM | MIC [34]: 1.42 µM (≈ 4 µg/mL) | MIC [35]: 22.8 µM (≈ 64 µg/mL) | MIC [36]: 22.8 µM (≈ 64 µg/mL) | MIC [37]: 11.4 µM (≈ 32 µg/mL) | MIC [38]: ≥ 45.5 µM
SMILES: CC(C)C[C@H](NC(=O)[C@H](CC(C)C)NC(=O)[C@H](CCCN=C(N)N)NC(=O)[C@H](Cc1cnc[nH]1)NC(=O)[C@@H](NC(=O)[C@H](CCCN=C(N)N)NC(=O)[C@H](CCCN=C(N)N)NC(=O)[C@H](CC(C)C)NC(=O)[C@H](CC(C)C)NC(=O)[C@H](CCCN=C(N)N)NC(=O)[C@H](Cc1cnc[nH]1)NC(=O)[C@@H](NC(=O)[C@H](CCCN=C(N)N)NC(=O)[C@H](CCCN=C(N)N)NC(=O)[C@H](CC(C)C)NC(=O)[C@H](CC(C)C)NC(=O)[C@H](CCCN=C(N)N)NC(=O)[C@H](Cc1cnc[nH]1)NC(=O)[C@@H](NC(=O)[C@@H](N)CCCN=C(N)N)C(C)C)C(C)C)C(C)C)C(=O)N[C@@H](CCCN=C(N)N)C(=O)O [RVHRLLRRVHRLLRRVHRLLR]

MIC [15]: 16 µM (≈ 20.5 µg/mL) | MIC [16]: 4 µM (≈ 5.12 µg/mL)
SMILES: CC[C@H](C)[C@H](NC(=O)[C@H](CC(C)C)NC(=O)[C@@H](NC(=O)[C@H](CC(C)C)NC(=O)[C@@H](NC(=O)[C@H](CCCCN)NC(=O)[C@@H](N)CCCN=C(N)N)[C@@H](C)CC)[C@@H](C)CC)C(=O)N[C@@H](CCCCN)C(=O)N[C@@H](CCCN=C(N)N)C(=O)N[C@@H](CCCCN)C(=O)O [RKILILIKRK]

Source: DBAASP
